The target in data set [1] is T1, CDK9/CycT1 (Homo sapiens, UniProt P50750).
T1 construct: Recombinant full-length His-tagged human CDK9 and CycT1; His; purchased Invitrogen PV4131; host or cells: insect cells
Description: CDK9/CycT1 kinase assay (Method 1a). It is filed as biochemical. The conditions noted are these: 10 μM ATP. An excerpt: 1a. CDK9/CycT1 Kinase Assay:
CDK9/CycT1-inhibitory activity of compounds of the present invention was quantified employing the CDK9/CycT1 TR-FRET assay as described in the following paragraphs:
Recombinant full-length His-tagged human CDK9 and CycT1, expressed in insect cells and purified by Ni-NTA affinity chromatography, were purchased from Invitrogen (Cat. No PV4131). As substrate for the kinase reaction biotinylated peptide biotin-Ttds-YISPLKSPYKISEG (C-terminus in amid form) was used which can be purchased e.g. form the company JERINI Peptide Technologies (Berlin, Germany) For the assay 50 nl of a 100 fold concentrated solution of the test compound in DMSO was pipetted into a black low volume 384 well microtiter plate (Greiner Bio-One, Frickenhausen, Germany), 2 μl of a solution of CDK9/CycT1 in aqueous assay buffer [50 mM Tris/HCl pH 8.0, 10 mM MgCl2, 1.0 mM dithiothreitol, 0.1 mM sodium ortho-vanadate, 0.01% (v/v) Nonidet-P40 (Sigma)] were added and the mixture was incubated for 15 min at 22° C. to allow pre-binding of the test compounds to the enzyme before the start of the kinase reaction. Then the kinase reaction was started by the addition of 3 μl of a solution of adenosine-tri-phosphate (ATP, 16.7 μM=>final conc. in the 5 μl assay volume is 10 μM) and substrate (1.67 μM=>final conc. in the 5 μl assay volume is 1 μM) in assay buffer and the resulting mixture was incubated for a reaction time of 25 min at 22° C. The concentration of CDK9/CycT1 was adjusted depending of the activity of the enzyme lot and was chosen appropriate to have the assay in the linear range, typical concentrations were in the range of 1 μg/ml. The reaction was stopped by the addition of 5 μl of a solution of TR-FRET detection reagents (0.2 μM streptavidine-XL665 [Cisbio Bioassays, Codolet, France] and 1 nM anti-RB(pSer807/pSer811)-antibody from BD Pharmingen [#558389] and 1.2 nM LANCE EU-W1024 labeled anti-mouse IgG antibody [Perkin-Elmer, product no. AD0077]) in an aqueous EDTA-solution (100 mM EDTA, 0.2% (w/v) bovine serum albumin in 100 mM HEPES/NaOH pH 7.0).
The resulting mixture was incubated 1 h at 22° C. to allow the formation of complex between the phosphorylated biotinylated peptide and the detection reagents. Subsequently the amount of phosphorylated substrate was evaluated by measurement of the resonance energy transfer from the Eu-chelate to the streptavidine-XL. Therefore, the fluorescence emissions at 620 nm and 665 nm after excitation at 350 nm was measured in a HTRF reader, e.g. a Rubystar (BMG Labtechnologies, Offenburg, Germany) or a Viewlux (Perkin-Elmer). The ratio of the emissions at 665 nm and at […] was taken as the measure for the amount of phosphorylated substrate. The data were normalised (enzyme reaction without inhibitor=0% inhibition, all other assay components but no enzyme=100% inhibition).

Data set [2] can be described thus: Equilibrium shake flask solubility assay, thermodynamic solubility in citrate buffer pH 4 (Method 4b). The data set is classed as physicochemical. To be noted: aqueous buffer, thermodynamic from solid; citrate buffer pH 4, 24 h, room temperature; read-out: Solubility in Citrate buffer pH4. The method, then:
4b) Thermodynamic Solubility in Citrate Buffer pH 4
Thermodynamic solubility was determined by an equilibrium shake flask method [Literature: Edward H. Kerns and Li Di (2008) Solubility Methods in: Drug-like Properties: Concepts, Structure Design and Methods, p 276-286. Burlington, Mass.: Academic Press].
A saturated solution of the drug was prepared and the solution was mixed for 24 h to ensure that equilibrium has been reached. The solution was centrifuged to remove the insoluble fraction and the concentration of the compound in solution was determined using a standard calibration curve.
To prepare the sample, 1.5 mg solid compound was weighed in a 4 ml glass vial. 1 ml Citrate buffer pH 4 was added. The suspension was put on a stirrer and mixed for 24 hrs at room temperature. The solution was centrifuged afterwards. To prepare the sample for the standard calibration, 0.6 mg solid sample was dissolved in 19 ml acetonitrile/water 1:1. After sonification the solution was filled up with acetonitrile/water 1:1 to 20 ml.
Sample and standards were quantified by HPLC with UV-detection. For each sample two injection volumes (5 and 50 μl) in triplicates were made. Three injection volumes (5 μl, 10 μl and 20 μl) were made for the standard.
Citrate buffer pH 4 (MERCK Art. 109435; 1 L buffer consisting of 11,768 g citric acid,
4,480 g sodium hydroxide, 1,604 g hydrogen chloride)
Chromatographic conditions were as follows:
HPLC column: Xterra MS C18 2.5 μm 4.6×30 mm
Injection volume: Sample: 3×5 μl and 3×50 μl
• Standard: 5 μl, 10 μl, 20 μl Flow: 1.5 ml/min Mobile phase: acidic gradient: • A: Water/0.01% TFA • B: Acetonitrile/0.01% TFA • 0 min: 95% A 5% B • 0-3 min: 35% A 65% B, linear gradient • 3-5 min: 35% A 65% B, isocratic • 5-6 min: 95% A 5% B, isocratic UV detector: wavelength near the absorption maximum (between 200 and 400 nm)
The areas of sample- and standard injections as well as the calculation of the solubility value (in mg/l) were determined by using HPLC software (Waters Empower 2 FR).

IC50 and solubility data for ten compounds are collected here from US9650361B2, “N-(pyridin-2-yl)pyrimidin-4-amine derivatives containing a sulfoximine group” (BAYER PHARAM AKTIENGESELLSCHAFT, priority 2012, dated 2017).

≈ marks a conversion by molar mass, not a printed value.

T1 sequence (P50750 whole entry): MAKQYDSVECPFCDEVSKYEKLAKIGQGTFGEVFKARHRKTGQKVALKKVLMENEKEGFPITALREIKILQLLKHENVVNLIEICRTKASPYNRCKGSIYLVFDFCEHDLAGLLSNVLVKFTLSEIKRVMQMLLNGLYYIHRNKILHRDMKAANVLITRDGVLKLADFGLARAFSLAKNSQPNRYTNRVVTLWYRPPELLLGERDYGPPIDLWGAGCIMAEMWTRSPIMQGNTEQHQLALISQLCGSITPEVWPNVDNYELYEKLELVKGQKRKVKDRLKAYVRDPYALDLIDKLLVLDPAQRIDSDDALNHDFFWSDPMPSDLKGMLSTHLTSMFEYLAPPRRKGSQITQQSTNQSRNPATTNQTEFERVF
T1 sequence (O60563 whole entry partner): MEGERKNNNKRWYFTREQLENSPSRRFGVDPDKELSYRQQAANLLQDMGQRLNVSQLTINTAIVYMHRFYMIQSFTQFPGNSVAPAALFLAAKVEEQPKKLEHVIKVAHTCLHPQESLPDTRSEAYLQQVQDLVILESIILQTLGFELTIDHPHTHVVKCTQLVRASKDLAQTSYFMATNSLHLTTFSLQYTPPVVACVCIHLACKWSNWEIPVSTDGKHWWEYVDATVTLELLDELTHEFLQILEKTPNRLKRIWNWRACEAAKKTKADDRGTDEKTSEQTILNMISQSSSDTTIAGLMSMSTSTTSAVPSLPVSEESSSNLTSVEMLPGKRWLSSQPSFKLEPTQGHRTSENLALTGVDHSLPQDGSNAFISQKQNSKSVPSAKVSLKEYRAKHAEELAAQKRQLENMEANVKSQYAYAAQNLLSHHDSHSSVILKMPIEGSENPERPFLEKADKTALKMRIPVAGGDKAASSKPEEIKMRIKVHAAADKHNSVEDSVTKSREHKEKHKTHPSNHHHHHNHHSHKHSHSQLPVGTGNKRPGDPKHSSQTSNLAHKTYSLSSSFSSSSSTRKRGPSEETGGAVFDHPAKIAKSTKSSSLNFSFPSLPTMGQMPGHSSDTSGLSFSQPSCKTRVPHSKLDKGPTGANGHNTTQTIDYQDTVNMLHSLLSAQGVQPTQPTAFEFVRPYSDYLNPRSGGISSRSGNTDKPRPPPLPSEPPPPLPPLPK

`COc1cc(F)ccc1-c1cc(Nc2cc(CS(C)(=N)=O)ccn2)ncn1` (single isomer, unassigned) [Example 3, 6-(4-Fluoro-2-methoxyphenyl)-N-{4-[(S-methylsulfonimidoyl)methyl]pyridin-2-yl}pyrimidin-4-amine]: the IC50 (as a rule, the concentration that inhibits the measured activity by half) in data set [1] stood at 4 nM.
On the same count and under the same terms, the value for `COc1cc(F)ccc1-c1cc(Nc2cc(CS(C)(=N)=O)cc(Cl)n2)ncn1` (single isomer, unassigned) [Example 6, N-{6-Chloro-4-[(S-methylsulfonimidoyl)methyl]pyridin-2-yl}-6-(4-fluoro-2-methoxyphenyl)pyrimidin-4-amine] was 4 nM.
In data set [1], `COc1cc(F)ccc1-c1cc(Nc2cc(CS(C)(=N)=O)cc(C(F)(F)F)n2)ncn1` (racemic) [Example 10, (rac)-6-(4-Fluoro-2-methoxyphenyl)-N-{4-[(S-methylsulfonimidoyl)methyl]-6-(trifluoromethyl)pyridin-2-yl}pyrimidin-4-amine] returned an IC50 of 5 nM. In data set [2], the solubility (as a rule, how much of the substance goes into solution per volume) at 24 h is 11 µg/mL (≈ 24.2 µM).
On to `COc1cc(F)ccc1-c1cc(Nc2cc(CS(C)(=N)=O)cc(C)n2)ncn1` (racemic) [Example 7, (rac)-6-(4-Fluoro-2-methoxyphenyl)-N-{6-methyl-4-[(S-methylsulfonimidoyl)methyl]pyridin-2-yl}pyrimidin-4-amine], for which the IC50 in data set [1] amounted to 5 nM. Besides, the solubility at 24 h in data set [2] was found to be 157 µg/mL (≈ 391 µM).
`COc1cc(F)ccc1-c1cc(Nc2cc(CS(C)(=N)=O)cc(C)n2)ncn1` (single isomer, unassigned) [Example 9, 6-(4-Fluoro-2-methoxyphenyl)-N-{6-methyl-4-[(S-methylsulfonimidoyl)methyl]pyridin-2-yl}pyrimidin-4-amine] displayed an IC50 in data set [1] of 4 nM.
The compound `COc1cc(F)ccc1-c1cc(Nc2cc(CS(C)(=N)=O)cc(Cl)n2)ncn1` (racemic) [Example 4, (rac)-N-{6-Chloro-4-[(S-methylsulfonimidoyl)methyl]pyridin-2-yl}-6-(4-fluoro-2-methoxyphenyl)pyrimidin-4-amine] gave an IC50 in data set [1] of 4 nM. Further, the solubility at 24 h in data set [2] was 15 µg/mL (≈ 35.6 µM).
`COc1cc(F)ccc1-c1cc(Nc2cc(CS(C)(=N)=O)ccn2)ncn1` (single isomer, unassigned) [Example 2, 6-(4-Fluoro-2-methoxyphenyl)-N-{4-[(S-methylsulfonimidoyl)methyl]pyridin-2-yl}pyrimidin-4-amine]: the IC50 in data set [1] worked out at 9 nM.
Take `COc1cc(F)ccc1-c1cc(Nc2cc(CS(C)(=N)=O)cc(Cl)n2)ncn1` (single isomer, unassigned) [Example 5, N-{6-Chloro-4-[(S-methylsulfonimidoyl)methyl]pyridin-2-yl}-6-(4-fluoro-2-methoxyphenyl)pyrimidin-4-amine]: in data set [1], 5 nM corresponded to half-maximal inhibition (IC50).
Same read-out and setting: the value for `COc1cc(F)ccc1-c1cc(Nc2cc(CS(C)(=N)=O)ccn2)ncn1` (racemic) [Example 1, (rac)-6-(4-Fluoro-2-methoxyphenyl)-N-{4-[(S-methylsulfonimidoyl)methyl]pyridin-2-yl}pyrimidin-4-amine] was 5 nM.
The same measure, in the same setting: to `COc1cc(F)ccc1-c1cc(Nc2cc(CS(C)(=N)=O)cc(C)n2)ncn1` (single isomer, unassigned) [Example 8, 6-(4-Fluoro-2-methoxyphenyl)-N-{6-methyl-4-[(S-methylsulfonimidoyl)methyl]pyridin-2-yl}pyrimidin-4-amine] belongs 4 nM.
